Source: PMC9854712 (Antioxidants, 2023)

Experiments:
AChE [1] = test: AChE inhibition quoted from the literature; type: biochemical; details: AChE IC50 ratio to 14a
AChE [2] = test system: AChE; design: method as in PMID 25312723; details: cited from earlier work
HTB-54 cells = test system: HTB-54 cells; design: method as in PMID 36257283; details: parent NSAIDs; cited from earlier work
HT-29 cells = details: parent NSAIDs; cited from earlier work
MCF-7 cells = test system: MCF-7 cells; design: method as in PMID 36257283; details: parent NSAIDs; cited from earlier work

O=c1c2ccccc2[se]n1-c1ccccc1 [Ebselen, ebselen]
fold higher IC50 than compound 14a (AChE [1]): 32 fold
IC50 (AChE [2]): 29 µM

COc1ccc2c(c1)c(CC(=O)O)c(C)n2C(=O)c1ccc(Cl)cc1 [Indomethacin, 2-[1-(4-chlorobenzoyl)-5-methoxy-2-methylindol-3-yl] acetic acid]
IC50 (HTB-54 cells): > 100 µM
IC50 (HT-29 cells): > 100 µM
IC50 (MCF-7 cells): > 100 µM

COc1ccc2cc([C@H](C)C(=O)O)ccc2c1 [Naproxen, (2S)-2-(6-methoxynaphtalen-2-yl) propanoic acid]
IC50 (HTB-54 cells): > 100 µM
IC50 (HT-29 cells): > 100 µM
IC50 (MCF-7 cells): > 100 µM

selenepezil
fold lower IC50 than compound 14a (AChE [1]): 9 fold
IC50 (AChE [2]): 0.097 µM
